Assay results from patent US8802849B2, “Tricyclic benzo[4,5]thieno-[2,3-d]pyrimidine-4-yl-amin derivatives, their salts, process for producing the compounds and their pharmaceutical use” (Vichem Chemie Kutató Kft., priority 2008, dated 2014).

Legend:
[1] = biological target: SRPK1 (Homo sapiens, UniProt Q96SB4); experiment: SRPK1 kinase assay; assay type: biochemical; details: 10 μM compound; read-out: SRPK1 percent of inhibition
Experimental: (§1) General description of the kinase assays: the kinase activity was assayed in 96-well microtiter plates at a final compound concentration of 10 μM in a total volume of 50 μl. Compounds were dissolved in 100% DMSO to prepare a 10 mM stock solution and than diluted with buffer to reach a 10 μM (or the required) final concentration. The kinase concentration was used to yield 10% ATP turn over. The ATP concentration was used at the KmATP and 12.5 μCi/ml adenosine 5′[γ-33P]triphosphate. The substrate concentration was used at 5 fold excess over the Km for the substrate. The reaction was incubated for 1 hour at room temperature and stopped by addition of 10 μl 50 mM EDTA. The assay was transferred to a 96 well MAPH filter plate (Millipore). The radioactivity was counted on a Microbeta microplate counter.

[2] = biological target: P56Lck (Homo sapiens, UniProt P06239); experiment: P56Lck kinase assay; assay type: biochemical; details: 10 μM compound; read-out: P56Lck percent of inhibition
Experimental: as §1

[3] = biological target: MAPK-ERK1 (Homo sapiens, UniProt P27361); experiment: MAPK-ERK1 kinase assay; assay type: biochemical; details: 10 μM compound; read-out: MAPK-ERK1 percent of inhibition
Experimental: as §1

[4] = biological target: cMet (Homo sapiens, UniProt P08581); experiment: cMet kinase assay; assay type: biochemical; details: 10 μM compound; read-out: cMet percent of inhibition
Experimental: as §1

[5] = biological target: Abl (Homo sapiens, UniProt P00519); experiment: Abl kinase assay; assay type: biochemical; details: 10 μM compound; read-out: Abl percent of inhibition
Experimental: as §1

[6] = biological target: c-Src (Homo sapiens, UniProt P12931); experiment: c-Src kinase assay; assay type: biochemical; details: 10 μM compound; read-out: c-Src percent of inhibition
Experimental: as §1

[7] = biological target: GSK-3beta (Homo sapiens, UniProt P49841); experiment: GSK-3beta kinase assay; assay type: biochemical; details: 10 μM compound; read-out: GSK-3beta percent of inhibition
Experimental: as §1

[8] = biological target: EGFR (Homo sapiens, UniProt P00533); experiment: EGFR kinase assay (33P-ATP filter plate); assay type: biochemical; details: 10 μM compound; read-out: EGFR percent of inhibition
Experimental: as §1

[9] = biological target: RSK1 (Homo sapiens, UniProt Q15418); experiment: RSK1 kinase assay; assay type: biochemical; details: 10 μM compound; read-out: RSK1 percent of inhibition
Experimental: as §1

[10] = biological target: PDGFR-beta (Homo sapiens, UniProt P09619); experiment: PDGFR-beta kinase assay; assay type: biochemical; details: 10 μM compound; read-out: PDGFR-beta percent of inhibition
Experimental: as §1

[11] = biological target: Jnk1a1 (Homo sapiens, UniProt P45983); experiment: Jnk1a1 kinase assay; assay type: biochemical; details: 10 μM compound; read-out: Jnk1a1 percent of inhibition
Experimental: as §1

[12] = biological target: T1, IKK-beta (Homo sapiens, UniProt O14920); experiment: IKK-beta kinase assay; assay type: biochemical; details: 10 μM compound; read-out: IKK-beta percent of inhibition
T1 sequence (O14920 1-756): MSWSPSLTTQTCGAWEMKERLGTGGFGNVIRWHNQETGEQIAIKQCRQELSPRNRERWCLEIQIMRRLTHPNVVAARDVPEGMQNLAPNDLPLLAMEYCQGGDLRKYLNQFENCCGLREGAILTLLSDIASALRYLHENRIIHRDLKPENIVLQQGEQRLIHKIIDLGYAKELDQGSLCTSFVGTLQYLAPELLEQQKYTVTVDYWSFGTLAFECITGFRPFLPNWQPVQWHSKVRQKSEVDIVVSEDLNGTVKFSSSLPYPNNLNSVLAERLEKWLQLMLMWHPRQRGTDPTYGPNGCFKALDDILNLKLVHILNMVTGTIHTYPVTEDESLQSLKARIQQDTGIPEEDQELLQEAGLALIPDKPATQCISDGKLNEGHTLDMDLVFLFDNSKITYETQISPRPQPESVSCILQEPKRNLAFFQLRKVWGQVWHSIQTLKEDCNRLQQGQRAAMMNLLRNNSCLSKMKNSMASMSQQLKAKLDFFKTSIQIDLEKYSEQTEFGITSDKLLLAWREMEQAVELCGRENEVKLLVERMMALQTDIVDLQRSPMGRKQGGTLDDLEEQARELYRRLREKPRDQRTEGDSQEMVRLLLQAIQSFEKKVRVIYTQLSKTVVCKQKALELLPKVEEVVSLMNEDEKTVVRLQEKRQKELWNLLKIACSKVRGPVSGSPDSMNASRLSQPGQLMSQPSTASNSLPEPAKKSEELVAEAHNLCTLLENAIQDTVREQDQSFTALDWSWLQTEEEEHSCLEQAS
Experimental: as §1

[13] = biological target: Kit (Homo sapiens, UniProt P10721); experiment: Kit kinase assay; assay type: biochemical; details: 10 μM compound; read-out: Kit percent of inhibition
Experimental: as §1

[14] = biological target: c-Raf (Homo sapiens, UniProt P04049); experiment: c-Raf kinase assay; assay type: biochemical; details: 10 μM compound; read-out: c-Raf percent of inhibition
Experimental: as §1

[15] = biological target: InsR (Homo sapiens, UniProt P06213); experiment: InsR kinase assay; assay type: biochemical; details: 10 μM compound; read-out: InsR percent of inhibition
Experimental: as §1

[16] = biological target: P70S6K (Homo sapiens, UniProt P23443); experiment: P70S6K kinase assay; assay type: biochemical; details: 10 μM compound; read-out: P70S6K percent of inhibition
Experimental: as §1

[17] = biological target: ROCK2 (Homo sapiens, UniProt O75116); experiment: ROCK2 kinase assay; assay type: biochemical; details: 10 μM compound; read-out: ROCK2 percent of inhibition
Experimental: as §1

[18] = biological target: CDK2/CycA (Homo sapiens, UniProt P24941); experiment: CDK2/CycA kinase assay; assay type: biochemical; details: 10 μM compound; read-out: CDK2/CycA percent of inhibition
Experimental: as §1

[19] = biological target: CK1-alpha (Homo sapiens, UniProt P48729); experiment: CK1-alpha kinase assay; assay type: biochemical; details: 10 μM compound; read-out: CK1-alpha percent of inhibition
Experimental: as §1

[20] = biological target: AKT1/PKBa (Homo sapiens, UniProt P31749); experiment: AKT1/PKBa kinase assay; assay type: biochemical; details: 10 μM compound; read-out: AKT1/PKBa percent of inhibition
Experimental: as §1

Kit, sequence (P10721 26-976, species assumed): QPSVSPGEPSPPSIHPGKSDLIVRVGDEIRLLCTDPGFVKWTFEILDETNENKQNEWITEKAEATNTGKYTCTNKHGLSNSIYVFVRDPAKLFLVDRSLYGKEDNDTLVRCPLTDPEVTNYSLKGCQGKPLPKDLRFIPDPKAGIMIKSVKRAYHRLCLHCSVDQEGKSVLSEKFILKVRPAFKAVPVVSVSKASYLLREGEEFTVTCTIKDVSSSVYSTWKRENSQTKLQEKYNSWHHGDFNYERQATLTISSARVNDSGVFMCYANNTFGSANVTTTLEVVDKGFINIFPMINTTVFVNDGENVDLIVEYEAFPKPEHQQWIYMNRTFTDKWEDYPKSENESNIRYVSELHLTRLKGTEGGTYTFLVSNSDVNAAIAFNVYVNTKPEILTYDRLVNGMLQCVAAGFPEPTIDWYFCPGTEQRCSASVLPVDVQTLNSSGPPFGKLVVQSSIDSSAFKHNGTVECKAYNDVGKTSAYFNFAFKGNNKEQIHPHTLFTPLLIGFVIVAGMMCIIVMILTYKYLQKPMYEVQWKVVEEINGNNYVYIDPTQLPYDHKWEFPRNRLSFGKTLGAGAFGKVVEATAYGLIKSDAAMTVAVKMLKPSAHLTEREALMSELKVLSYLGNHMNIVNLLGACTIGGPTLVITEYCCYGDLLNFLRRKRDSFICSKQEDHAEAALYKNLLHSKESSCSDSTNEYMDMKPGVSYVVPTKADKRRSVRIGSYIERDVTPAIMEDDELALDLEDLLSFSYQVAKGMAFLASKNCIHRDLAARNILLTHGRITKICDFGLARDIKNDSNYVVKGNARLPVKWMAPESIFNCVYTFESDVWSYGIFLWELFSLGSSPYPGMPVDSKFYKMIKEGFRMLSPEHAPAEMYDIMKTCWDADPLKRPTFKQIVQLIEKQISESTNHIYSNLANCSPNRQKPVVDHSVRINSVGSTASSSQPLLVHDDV
cMet, sequence (P08581 25-1390): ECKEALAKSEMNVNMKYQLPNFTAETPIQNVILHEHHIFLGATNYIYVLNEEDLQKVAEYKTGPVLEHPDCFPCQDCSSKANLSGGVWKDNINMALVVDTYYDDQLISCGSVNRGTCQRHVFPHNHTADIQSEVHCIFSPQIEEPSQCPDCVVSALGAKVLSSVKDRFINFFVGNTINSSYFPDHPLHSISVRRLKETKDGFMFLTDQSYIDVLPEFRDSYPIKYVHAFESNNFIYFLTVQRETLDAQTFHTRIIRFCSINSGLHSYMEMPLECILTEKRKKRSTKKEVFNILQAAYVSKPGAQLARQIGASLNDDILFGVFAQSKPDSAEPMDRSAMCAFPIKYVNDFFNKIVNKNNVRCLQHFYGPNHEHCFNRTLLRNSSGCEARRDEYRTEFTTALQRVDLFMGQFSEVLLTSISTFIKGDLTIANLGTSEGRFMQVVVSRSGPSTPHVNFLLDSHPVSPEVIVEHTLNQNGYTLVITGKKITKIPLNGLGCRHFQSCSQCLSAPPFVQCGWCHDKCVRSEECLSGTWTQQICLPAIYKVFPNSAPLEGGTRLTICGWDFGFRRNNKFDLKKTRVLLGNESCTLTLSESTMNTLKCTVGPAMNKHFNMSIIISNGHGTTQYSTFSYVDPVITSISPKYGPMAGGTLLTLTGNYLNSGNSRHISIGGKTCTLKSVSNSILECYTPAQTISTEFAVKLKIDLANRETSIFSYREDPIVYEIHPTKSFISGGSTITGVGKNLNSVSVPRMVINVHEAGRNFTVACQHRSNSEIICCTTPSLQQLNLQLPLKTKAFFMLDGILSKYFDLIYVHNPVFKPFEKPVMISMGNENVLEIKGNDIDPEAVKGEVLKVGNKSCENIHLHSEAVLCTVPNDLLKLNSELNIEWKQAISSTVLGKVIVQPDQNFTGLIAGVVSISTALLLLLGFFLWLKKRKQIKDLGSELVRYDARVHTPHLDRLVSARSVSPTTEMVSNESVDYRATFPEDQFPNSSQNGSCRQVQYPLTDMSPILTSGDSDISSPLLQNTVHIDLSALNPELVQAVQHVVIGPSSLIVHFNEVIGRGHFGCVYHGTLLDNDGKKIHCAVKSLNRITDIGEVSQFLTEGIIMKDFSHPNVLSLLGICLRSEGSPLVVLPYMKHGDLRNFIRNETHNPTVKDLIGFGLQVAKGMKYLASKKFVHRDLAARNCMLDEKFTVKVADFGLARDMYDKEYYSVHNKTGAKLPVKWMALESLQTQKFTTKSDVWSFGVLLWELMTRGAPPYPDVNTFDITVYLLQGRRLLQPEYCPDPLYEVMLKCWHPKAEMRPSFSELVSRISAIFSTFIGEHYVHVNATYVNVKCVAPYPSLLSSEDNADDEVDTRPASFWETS
ROCK2, sequence (O75116 whole entry, species assumed): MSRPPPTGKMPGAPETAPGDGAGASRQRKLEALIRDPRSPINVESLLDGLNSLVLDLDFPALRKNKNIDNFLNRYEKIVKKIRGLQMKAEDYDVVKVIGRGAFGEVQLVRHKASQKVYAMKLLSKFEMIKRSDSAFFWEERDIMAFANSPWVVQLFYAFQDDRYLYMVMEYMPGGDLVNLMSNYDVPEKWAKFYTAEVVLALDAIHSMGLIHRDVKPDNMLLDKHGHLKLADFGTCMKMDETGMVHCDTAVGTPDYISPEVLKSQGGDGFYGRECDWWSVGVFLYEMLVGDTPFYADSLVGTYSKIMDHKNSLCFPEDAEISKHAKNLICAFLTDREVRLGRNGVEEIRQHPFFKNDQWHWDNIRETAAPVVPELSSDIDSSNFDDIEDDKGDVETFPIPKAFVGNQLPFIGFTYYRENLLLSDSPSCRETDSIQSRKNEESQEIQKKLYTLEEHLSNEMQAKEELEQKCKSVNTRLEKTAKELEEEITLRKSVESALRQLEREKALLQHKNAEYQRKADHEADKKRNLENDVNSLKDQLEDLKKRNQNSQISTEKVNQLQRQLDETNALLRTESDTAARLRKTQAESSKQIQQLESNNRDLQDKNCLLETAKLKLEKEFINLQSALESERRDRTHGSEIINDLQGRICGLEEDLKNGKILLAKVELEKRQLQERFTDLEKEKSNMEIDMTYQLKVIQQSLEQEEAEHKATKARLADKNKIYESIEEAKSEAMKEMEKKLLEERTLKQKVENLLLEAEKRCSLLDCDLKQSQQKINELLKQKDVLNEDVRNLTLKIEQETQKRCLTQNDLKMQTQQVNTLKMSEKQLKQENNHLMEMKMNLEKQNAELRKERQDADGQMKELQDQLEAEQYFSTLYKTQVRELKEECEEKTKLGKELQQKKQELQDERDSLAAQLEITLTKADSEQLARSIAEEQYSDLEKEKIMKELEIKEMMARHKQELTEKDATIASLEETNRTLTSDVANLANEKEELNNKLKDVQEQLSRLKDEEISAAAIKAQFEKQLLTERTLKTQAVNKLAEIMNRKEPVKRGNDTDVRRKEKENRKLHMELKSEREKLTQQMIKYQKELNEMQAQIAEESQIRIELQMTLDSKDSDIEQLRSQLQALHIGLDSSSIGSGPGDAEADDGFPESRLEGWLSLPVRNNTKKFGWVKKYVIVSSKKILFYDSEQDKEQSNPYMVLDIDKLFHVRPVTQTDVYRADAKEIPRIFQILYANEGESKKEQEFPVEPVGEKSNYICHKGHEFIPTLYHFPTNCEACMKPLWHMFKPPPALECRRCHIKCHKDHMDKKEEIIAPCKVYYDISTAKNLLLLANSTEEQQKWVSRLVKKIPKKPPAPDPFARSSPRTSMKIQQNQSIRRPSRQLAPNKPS
RSK1, sequence (Q15418 whole entry, species assumed): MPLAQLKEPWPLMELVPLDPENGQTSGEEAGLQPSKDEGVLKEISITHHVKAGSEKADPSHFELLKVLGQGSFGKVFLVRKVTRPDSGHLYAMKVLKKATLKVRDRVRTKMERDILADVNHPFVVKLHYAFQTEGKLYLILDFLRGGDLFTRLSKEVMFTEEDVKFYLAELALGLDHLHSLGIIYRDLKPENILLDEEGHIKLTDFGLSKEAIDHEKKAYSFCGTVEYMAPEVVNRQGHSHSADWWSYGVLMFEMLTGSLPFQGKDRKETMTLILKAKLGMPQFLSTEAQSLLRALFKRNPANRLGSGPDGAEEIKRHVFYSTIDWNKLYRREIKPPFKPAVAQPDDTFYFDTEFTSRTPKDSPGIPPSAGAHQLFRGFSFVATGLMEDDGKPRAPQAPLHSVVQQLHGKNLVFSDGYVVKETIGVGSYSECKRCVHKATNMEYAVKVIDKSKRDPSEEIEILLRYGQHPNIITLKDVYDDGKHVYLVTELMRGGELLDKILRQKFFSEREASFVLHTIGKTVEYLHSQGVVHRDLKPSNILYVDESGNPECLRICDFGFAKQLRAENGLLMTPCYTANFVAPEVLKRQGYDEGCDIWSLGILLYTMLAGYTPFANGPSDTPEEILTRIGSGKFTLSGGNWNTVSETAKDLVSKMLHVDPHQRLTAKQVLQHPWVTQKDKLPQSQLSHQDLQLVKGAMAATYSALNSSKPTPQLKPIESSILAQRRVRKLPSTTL
MAPK-ERK1, sequence (P27361 whole entry): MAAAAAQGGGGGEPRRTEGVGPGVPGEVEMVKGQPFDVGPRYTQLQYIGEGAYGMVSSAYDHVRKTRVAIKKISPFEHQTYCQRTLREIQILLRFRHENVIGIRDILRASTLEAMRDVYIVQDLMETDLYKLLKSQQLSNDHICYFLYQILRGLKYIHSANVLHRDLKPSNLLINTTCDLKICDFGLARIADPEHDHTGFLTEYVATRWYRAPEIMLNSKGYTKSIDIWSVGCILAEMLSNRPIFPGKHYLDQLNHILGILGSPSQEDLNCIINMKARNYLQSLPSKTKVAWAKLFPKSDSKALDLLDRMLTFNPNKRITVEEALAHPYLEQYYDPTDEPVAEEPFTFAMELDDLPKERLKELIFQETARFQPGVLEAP

Row | SMILES | inhibition at 10 µM [1] [%] | inhibition at 10 µM [2] [%] | inhibition at 10 µM [3] [%] | melting point [°C] | inhibition at 10 µM [4] [%] | inhibition at 10 µM [5] [%] | inhibition at 10 µM [6] [%] | inhibition at 10 µM [7] [%] | inhibition at 10 µM [8] [%] | inhibition at 10 µM [9] [%] | inhibition at 10 µM [10] [%] | inhibition at 10 µM [11] [%] | inhibition at 10 µM [12] [%] | inhibition at 10 µM [13] [%] | inhibition at 10 µM [14] [%] | inhibition at 10 µM [15] [%] | inhibition at 10 µM [16] [%] | inhibition at 10 µM [17] [%] | inhibition at 10 µM [18] [%] | inhibition at 10 µM [19] [%] | also measured
1 | O=[N+]([O-])c1cccc(Nc2nc(C3CC3)nc3sc4c(c23)CCCC4)c1 [Compound 13, (2-Cyclopropyl-5,6,7,8-tetrahydro-benzo[4,5]thieno[2,3-d]pyrimidin-4-yl)-(3-nitro-phenyl)-amine] | 11 | 12 | -6 | 211.7 | -4 | -15 | 1 | -6 | 26 | -18 | -14 | -9 | -9 | -12 | -7 | 9 | 9 | 3 | -18 | 0 | inhibition at 10 µM [20]: -2%
2 | N#Cc1cccc(Nc2ncnc3sc4c(c23)CCCC4)c1 [Compound 5, 3-(5,6,7,8-Tetrahydro-benzo[4,5]thieno[2,3-d]pyrimidin-4-ylamino)-benzonitrile] | 7 | -5 | -5 | 194.6 | -4 | -7 | 8 | -6 | 99 | 19 | -5 | -3 | 10 | -5 | 0 | -7 | 1 | -2 | 9 | 7 | inhibition at 10 µM [20]: -25%
3 | Nc1ccc(Nc2ncnc3sc4c(c23)CCCC4)cc1 [Compound 8, N-(5,6,7,8-Tetrahydro-benzo[4,5]thieno[2,3-d]pyrimidin-4-yl)-benzene-1,4-diamine] | -4 | 2 | 12 | 203.1 | 9 | 19 | 16 | 8 | 96 | 6 | 6 | 20 | 16 | 20 | 11 | 36 | 7 | -11 | 12 | 4 | inhibition at 10 µM [20]: 4%
4 | Clc1cccc(Nc2ncnc3sc4ccccc4c23)c1 [Compound 22, Benzo[4,5]thieno[2,3-d]pyrimidin-4-yl-(3-chloro-phenyl)-amine] | 6 | 11 | 5 | 168 | 5 | 8 | 9 | 5 | 98 | -2 | -8 | 0 | 11 | 1 | -6 | 18 | 5 | 4 | -6 | -2 | inhibition at 10 µM [20]: -7%
